Source: patent US9617244B2, “Antibacterial quinoline derivatives” (JANSSEN PHARMACEUTICA NV, priority 2012, dated 2017)
Converted amounts (≈) assume the structure as drawn.

Assays:
[1] = test system: Staphylococcus aureus (ATCC29213); test: In-vitro anti-bacterial activity, microtitre plate assay, IC90 determination (non-mycobacterial strains); assay type: cell-based; details: 90% inhibitory concentration for bacterial growth, resazurin fluorescence; for IC90: Staphylococcus aureus, ATCC29213, 24 h, read-out: IC90 STA B29213; for IC90 STA B29213: 24 hours
Procedure, shortened: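 Growth inhibition measured fluorometrically with resazurin (530/590 nm) after overnight 37 °C incubation under normal atmosphere. Bacteria added at roughly 100 TCID50 per well in Mueller-Hinton broth to five-fold compound dilution series; IC90 reported in μg/ml.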

[2] = test system: Mycobacterium smegmatis (ATCC607); test: In-vitro anti-bacterial activity against strain M. Smegmatis ATCC607; assay type: cell-based; details: 90% inhibitory concentration for bacterial growth, Alamar Blue fluorescence; for IC90: Mycolicibacterium smegmatis, ATCC607, 48 h, read-out: IC90 MSM 607; for IC90 MSM 607: 48 hours
Procedure, shortened: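 IC90 (μg/ml) derived from Alamar Blue fluorescence (530/590 nm) after 48 h growth at 37 °C under 5% CO2. About 250 CFU per well in Mueller-Hinton broth faced five-fold serial compound dilutions in BSA-containing wells.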

| Structure (SMILES) | melting point [°C] | IC90 [1] [µg/mL] | IC90 [2] [µg/mL] | IC90 STA B29213 [1] [µg/mL] | IC90 MSM 607 [2] [µg/mL] |
| --- | --- | --- | --- | --- | --- |
| COc1nc2ccc(-c3cccnc3)cc2cc1C(c1cccc(Cl)c1)C1(O)CCNC(Cc2ccccc2)C1 (stereo not drawn) [Compound 36] | 120 | 3.47 (≈ 6.31 µM) | 2.19 (≈ 3.98 µM) | – | – |
| COc1nc2ccc(S(C)(=O)=O)cc2cc1C(c1ccccc1)C1(O)CCNC(Cc2ccccc2)C1 (stereo not drawn) [Compound 157] | 100 | > 13 | > 13 | – | – |
| COc1nc2ccc(SC)cc2cc1C(c1ccc(Cl)cc1)C1(O)CCNC(c2ccc(F)cc2C)C1 (stereo not drawn) [Compound 244] | 205 | – | – | 2.40 (≈ 4.47 µM) | 1.51 (≈ 2.81 µM) |
| COc1nc2ccc(Br)cc2cc1C(c1ccc(Cl)cc1)C1(O)CCNC(Cc2ccccc2)C1 (stereo not drawn) [Compound 31] | 183 | 3.48 (≈ 6.31 µM) | – | – | 1.90 (≈ 3.44 µM) |
| COc1nc2ccc(S(C)(=O)=O)cc2cc1C(c1ccc(Cl)cc1)C1(O)CCNC(c2ccc3ccccc3c2)C1 (stereo not drawn) [Compound 461] | 208 | – | – | 2.62 (≈ 4.46 µM) | 1.47 (≈ 2.5 µM) |
| COc1nc2ccc(Br)cc2cc1C(c1ccc(Cl)cc1)C1(O)CCNC(Cc2ccc(F)cc2)C1 (stereo not drawn) [Compound 358] | 138 | – | – | 3.60 (≈ 6.32 µM) | 1.43 (≈ 2.51 µM) |
| COc1nc2ccc(Cl)cc2cc1C(c1ccc(Cl)cc1)C1(O)CCNCC1F (stereo not drawn) [Compound 454] | 186 | – | – | 10.94 (≈ 25.1 µM) | 4.35 (≈ 9.99 µM) |
| COc1nc2ccc(Cl)cc2cc1C(c1ccc(S(C)(=O)=O)cc1)C1(O)CCNC(c2ccc(F)cc2C)C1 (stereo not drawn) [Compound 367] | 175 | – | – | 7.16 (≈ 12.6 µM) | 5.69 (≈ 10 µM) |
| COc1nc2ccc(Br)cc2cc1C(c1ccccc1)C1(O)CCNC(c2ccc(F)cc2C)C1 (stereo not drawn) [Compound 247] | 132 | – | – | 3.38 (≈ 6.31 µM) | 1.69 (≈ 3.16 µM) |
| COc1nc2ccc(SC)cc2cc1C(c1ccc(Cl)cc1)C1(O)CCNC(Cc2ccc(F)cc2)C1 (stereo not drawn) [Compound 300] | 90 | – | – | 1.07 (≈ 1.99 µM) | 1.70 (≈ 3.17 µM) |
| COc1nc2ccc(Cl)cc2cc1C(c1ccc(Cl)cc1)C1(O)CCNC(c2ccc(F)cc2C)C1 (single isomer, unassigned) [Compound 2] | 126 | – | – | 13.20 (≈ 25.1 µM) | 13.20 (≈ 25.1 µM) |
| COc1nc2ccc(S(C)(=O)=O)cc2cc1C(c1cccc(Cl)c1)C1(O)CCNC(c2ccc(F)cc2C)C1 (stereo not drawn) [Compound 172] | 170 | – | – | 7.16 (≈ 12.6 µM) | 3.59 (≈ 6.31 µM) |
| C=CCC1CNCCC1(O)C(c1ccc(Cl)cc1)c1cc2cc(Br)ccc2nc1OC (stereo not drawn) [Compound 392] | 162 to 164 | 6.32 (≈ 12.6 µM) | 3.17 (≈ 6.32 µM) | – | – |
| COc1nc2ccc(Br)cc2cc1C(c1ccc(S(C)(=O)=O)cc1)C1(O)CCNC(Cc2ccccc2)C1 (stereo not drawn) [Compound 103] | 135 | – | – | 14.96 (≈ 25.1 µM) | 14.96 (≈ 25.1 µM) |
| COc1nc2ccc(S(C)(=O)=O)cc2cc1C(c1ccccc1)C1(O)CCNC(Cc2ccccc2)C1 (stereo not drawn) [Compound 158] | 198 | – | – | >12.98 | >12.98 |
| COc1nc2ccc(S(C)(=O)=O)cc2cc1C(c1cccc(Cl)c1)C1(O)CCNC(c2ccc(F)cc2C)C1 (stereo not drawn) [Compound 46] | 145 | – | – | 3.59 (≈ 6.31 µM) | 1.80 (≈ 3.16 µM) |
| COc1nc2ccc(S(C)(=O)=O)cc2cc1C(c1ccc(Cl)cc1)C1(O)CCNC(c2ccc(F)cc2C)C1 (stereo not drawn) [Compound 216] | 152 | – | – | 7.16 (≈ 12.6 µM) | 5.69 (≈ 10 µM) |
| COc1nc2ccc(SC)cc2cc1C(c1ccc(Cl)cc1)C1(O)CCNC(Cc2ccc(F)cc2)C1 (stereo not drawn) [Compound 260] | 104 | – | – | 3.39 (≈ 6.31 µM) | 3.39 (≈ 6.31 µM) |
| C=CC1CC(O)(C(c2ccc(Cl)cc2)c2cc3cc(Br)ccc3nc2OC)CCN1 (stereo not drawn) [Compound 374] | 162 | – | – | 3.08 (≈ 6.31 µM) | 1.23 (≈ 2.52 µM) |
| COc1nc2ccc(SC)cc2cc1C(c1ccccc1)C1(O)CCNC(c2ccc(F)cc2C)C1 (stereo not drawn) [Compound 168] | 169 | – | – | 3.17 (≈ 6.31 µM) | 1.42 (≈ 2.82 µM) |
| COc1nc2ccc(Cl)cc2cc1C(c1ccc(SC)cc1)C1(O)CCNC(c2ccc(F)cc2C)C1 (stereo not drawn) [Compound 351] | 128 to 130 | – | – | 1.70 (≈ 3.17 µM) | 1.35 (≈ 2.51 µM) |
| COc1nc2ccc(S(C)(=O)=O)cc2cc1C(c1ccc(Cl)cc1)C1(O)CCNCC1Cc1cccc[n+]1[O-] (stereo not drawn) [Compound 447] | 234 | – | – | >14.27 | >14.27 |

| Structure (SMILES) | melting point [°C] | IC90 [1] [µg/mL] | IC90 [2] [µg/mL] | IC90 STA B29213 [1] [µg/mL] | IC90 MSM 607 [2] [µg/mL] |
| --- | --- | --- | --- | --- | --- |
| COc1nc2ccc(SC)cc2cc1C(c1ccc(Cl)cc1)C1(O)CCNC(c2ccc(F)cc2C)C1 (stereo not drawn) [Compound 245] | 147 | – | – | 1.91 (≈ 3.56 µM) | 1.07 (≈ 1.99 µM) |
| COc1nc2ccc(Br)cc2cc1C(c1ccc(Cl)cc1)C1(O)CCNC(Cc2ccccc2)C1 (stereo not drawn) [Compound 33] | 177 | – | – | 3.48 (≈ 6.31 µM) | >3.48 |
| COc1nc2ccc(SC)cc2cc1C(c1ccc(Cl)cc1)C1(O)CCNC(c2ccc(F)cc2C)C1 (stereo not drawn) [Compound 273] | 204 | – | – | 3.39 (≈ 6.31 µM) | 1.70 (≈ 3.17 µM) |
| COc1nc2ccc(S(C)(=O)=O)cc2cc1C(c1ccc(Cl)cc1)C1(O)CCNC(Cc2ccc(F)cc2)C1 (stereo not drawn) [Compound 388] | 103 | – | – | 1.80 (≈ 3.16 µM) | 3.59 (≈ 6.31 µM) |
| O=c1[nH]c2ccc(Cl)cc2cc1C(c1ccc(Cl)cc1)C1(O)CCNC(CO)C1 (stereo not drawn) [Compound 446] | 210 | – | 5.46 (≈ 12.6 µM) | 10.89 (≈ 25.1 µM) | – |
| COc1nc2ccc(Br)cc2cc1C(c1ccc(Cl)cc1)C1(O)CCNC(CC2CCCCC2)C1 (stereo not drawn) [Compound 257] | 108 | – | – | 4.97 (≈ 8.91 µM) | 3.14 (≈ 5.63 µM) |
| CS(=O)(=O)c1ccc2[nH]c(=O)c(C(c3ccc(Cl)cc3)C3(O)CCNC(Cc4ccc(F)cc4)C3)cc2c1 (stereo not drawn) [Compound 56] | 140 | – | – | >13.94 | >13.94 |
| COc1nc2ccc(S(C)(=O)=O)cc2cc1C(c1cccc(Cl)c1)C1(O)CCNC(c2ccc(F)cc2C)C1 (stereo not drawn) [Compound 171] | 161 | – | – | 7.16 (≈ 12.6 µM) | 5.69 (≈ 10 µM) |
| COc1nc2ccc(SC)cc2cc1C(c1ccc(Cl)cc1)C1(O)CCNC(Cc2ccc(F)cc2)C1 (stereo not drawn) [Compound 299] | 110 | – | – | 1.70 (≈ 3.17 µM) | 1.35 (≈ 2.51 µM) |
| COc1nc2ccc(S(C)(=O)=O)cc2cc1C(c1ccc(Cl)cc1)C1(O)CCNC(Cc2ccccc2)C1 (stereo not drawn) [Compound 97] | 120 | – | – | >13.84 | 13.84 (≈ 25.1 µM) |
| COc1nc2ccc(Br)cc2cc1C(c1ccccc1)C1(O)CCNC(c2ccc(F)cc2C)C1 (stereo not drawn) [Compound 248] | 134 | – | – | 3.38 (≈ 6.31 µM) | 2.68 (≈ 5.01 µM) |
| CSc1ccc2[nH]c(=O)c(C(c3ccccc3)C3(O)CCNC(c4ccc(F)cc4C)C3)cc2c1 (stereo not drawn) [Compound 180] | 186 | – | – | 3.08 (≈ 6.3 µM) | 3.08 (≈ 6.3 µM) |
| COc1nc2ccc(Br)cc2cc1C(c1ccc(Cl)cc1)C1(O)CCNC(CC2CCCCC2)C1 (stereo not drawn) [Compound 259] | 168 | – | – | 1.76 (≈ 3.15 µM) | 1.40 (≈ 2.51 µM) |
| COc1nc2ccc(S(C)(=O)=O)cc2cc1C(c1ccc(Cl)cc1)C1(O)CCNCC1(C)C (stereo not drawn) [Compound 397] | 180 | > 12.3 | > 12.3 | – | – |
| COc1nc2ccc(Br)cc2cc1C(c1ccc(Cl)cc1)C1(O)CCNC(Cc2ccc(F)cc2)C1 (stereo not drawn) [Compound 338] | 198 | – | – | 1.80 (≈ 3.16 µM) | 1.43 (≈ 2.51 µM) |
| COc1nc2ccc(S(C)(=O)=O)cc2cc1C(c1ccc(Cl)cc1)C1(O)CCNCC1Cc1cccc[n+]1[O-] (stereo not drawn) [Compound 448] | 182 | – | – | >14.27 | >14.27 |
| COc1nc2ccc(SC)cc2cc1C(c1cccc(Cl)c1)C1(O)CCNC(Cc2ccc(F)cc2F)C1 (stereo not drawn) [Compound 318] | 133 | – | – | 1.76 (≈ 3.17 µM) | 1.76 (≈ 3.17 µM) |
| COc1nc2ccc(SC)cc2cc1C(c1ccc(Cl)cc1)C1(O)CCNC(Cc2ccc(F)c(F)c2)C1 (stereo not drawn) [Compound 189] | 160 | – | – | 1.76 (≈ 3.17 µM) | 2.78 (≈ 5.01 µM) |
| COc1nc2ccc(Br)cc2cc1C(c1ccc(Cl)cc1)C1(O)CCNC(Cc2ccc(F)cc2)C1 (stereo not drawn) [Compound 339] | 176 | – | – | 3.60 (≈ 6.32 µM) | 1.80 (≈ 3.16 µM) |
| CSc1ccc2[nH]c(=O)c(C(c3cccc(Cl)c3)C3(O)CCNC(c4ccc(F)cc4C)C3)cc2c1 (stereo not drawn) [Compound 175] | 194 | – | – | 2.34 (≈ 4.47 µM) | 3.30 (≈ 6.31 µM) |
| COc1nc2ccc(S(C)(=O)=O)cc2cc1C(c1ccccc1)C1(O)CCNC(c2ccc(F)cc2C)C1 (stereo not drawn) [Compound 251] | 183 | – | – | 13.43 (≈ 25.1 µM) | 10.67 (≈ 20 µM) |
